Reference: the supplement of paper PMC10307832

Compound: COc1cccc2cc(-c3nc([C@H]4CC[C@H](C(=O)O)CC4)n4ncnc(N)c34)[nH]c12 [OSI-027] + Cc1nc(NC(=O)N2CCC[C@H]2C(N)=O)sc1-c1ccnc(C(C)(C)C(F)(F)F)c1 [Alpelisib] (partner 2 µM)
Test: relative viability (nuclei count vs DMSO), 5 days (fraction); higher = more cells survive
In short: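 Cells from lung cancer lines were seeded into 1536-well plates and, one day later, dosed by pin tool. Treatments were either a single drug or a fixed dose of an anchor drug with five library-drug doses (not always all listed) in √10 steps. After 5 days, nuclei were stained in a one-step fixation (final 0.05% Triton X-100, 1% formaldehyde, 1 ug/ml Hoechst) and counted on 4× images, and relative viability is the treated-to-vehicle nuclei ratio, as the median of duplicate plates.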

| Cell Line | relative viability (first compound 0.01 µM) | relative viability (first compound 0.03162 µM) | relative viability (first compound 0.1 µM) | relative viability (first compound 0.3162 µM) | relative viability (first compound 1 µM) |
| --- | --- | --- | --- | --- | --- |
| NCI-H647 | 1.15 | 1.26 | 0.914 | 0.699 | 0.376 |
| NCI-H650 | 1.05 | 1.1 | 0.749 | 0.679 | 0.389 |
| NCI-H661 | 0.482 | 0.671 | 0.41 | 0.5 | 0.33 |
| NCI-H727 | 0.567 | 0.63 | 0.491 | 0.419 | 0.378 |
| NCI-H838 | 0.996 | 0.847 | 0.632 | 0.498 | 0.275 |
| NCI-H1299 | 1.11 | 1.05 | 1.12 | 1.08 | 0.786 |
| NCI-H1355 | 0.764 | 0.723 | 0.677 | 0.345 | 0.24 |
| NCI-H1395 | 1.04 | 1.14 | 0.974 | 0.93 | 0.757 |
| NCI-H1437 | 1 | 0.676 | 0.895 | 0.521 | 0.272 |
| NCI-H1563 | 0.983 | 0.888 | 0.82 | 0.673 | 0.759 |
| NCI-H1651 | 1.1 |  | 0.882 | 0.713 | 0.559 |
| NCI-H1666 | 0.869 | 1.02 | 0.658 | 0.43 | 0.488 |
| NCI-H1703 | 0.32 | 0.285 | 0.284 | 0.279 | 0.238 |
| NCI-H1734 | 0.642 | 0.694 | 0.63 | 0.517 | 0.259 |
| NCI-H1755 | 0.92 | 0.849 | 0.917 | 0.8 | 0.353 |
| NCI-H1792 | 1.07 | 0.517 | 0.623 | 0.495 | 0.188 |
| NCI-H1793 | 0.831 | 0.589 | 0.466 | 0.307 | 0.189 |
| NCI-H1915 | 1.11 | 1.12 | 1.13 | 0.956 | 0.605 |
| NCI-H1944 | 0.855 | 0.796 | 0.764 | 0.607 | 0.301 |

| Cell Line | relative viability (first compound 0.01 µM) | relative viability (first compound 0.03162 µM) | relative viability (first compound 0.1 µM) | relative viability (first compound 0.3162 µM) | relative viability (first compound 1 µM) |
| --- | --- | --- | --- | --- | --- |
| NCI-H1975 | 0.659 | 0.667 | 0.455 | 0.38 | 0.355 |
| NCI-H1993 | 0.647 | 0.646 | 0.562 | 0.533 | 0.655 |
| NCI-H2009 | 1.14 | 1.14 | 1.07 | 0.999 | 0.568 |
| NCI-H2023 | 0.608 | 0.499 | 0.505 | 0.34 | 0.19 |
| NCI-H2085 | 0.927 | 0.925 | 0.835 | 0.727 | 0.592 |
| NCI-H2087 | 1.12 | 1.21 | 0.947 | 0.625 | 0.398 |
| NCI-H2126 | 0.764 | 0.69 | 0.694 | 0.603 | 0.399 |
| NCI-H2170 | 0.856 | 0.888 | 0.593 | 0.688 | 0.355 |
| NCI-H2228 | 0.934 | 0.808 | 0.674 |  | 0.546 |
| NCI-H2347 | 1.11 | 0.899 | 0.974 | 0.717 | 0.416 |
| NCI-H2405 | 0.783 | 0.664 | 0.577 | 0.475 | 0.33 |
| NCI-H3122 | 0.711 | 0.762 | 0.657 | 0.405 | 0.284 |
| PC-3 [JPC-3] | 1.06 | 1.03 | 0.986 | 0.802 | 0.43 |
| PC-14 | 0.855 | 0.641 | 1.01 | 1.03 | 0.65 |
| RERF-LC-KJ | 0.698 | 0.793 | 0.641 | 0.507 | 0.361 |
| SK-LU-1 | 1.25 | 0.978 | 0.64 | 0.394 | 0.304 |
| SK-MES-1 | 0.898 | 0.841 | 0.811 | 0.534 | 0.337 |
| SW 1573 | 0.738 | 0.76 | 0.661 | 0.669 | 0.39 |
